# Values quoted from earlier work as cited in patent publication US11723919B2, “Composition or combination comprising anionic dietary supplement and 25-hydroxy vitamin D” (Phibro Animal Health Corporation, priority 2020, dated 2023).
# System: dairy cows
# Conditions: administration pre- or post-calving; Guo et al. 2018
compound,measurement,value
"C=C1CC[C@H](O)C/C1=C/C=C1\CCC[C@]2(C)[C@@H]([C@H](C)CCCC(C)(C)O)CC[C@@H]12 [25-hydroxy vitamin D, 25-hydroxy vitamin D3]",effect on milk yield,no effect
